Results: paper PMC6321168, “Comparative Study on Excretive Characterization of Main Components in Herb Pair Notoginseng-Safflower and Single Herbs by LC–MS/MS” (Pharmaceutics, 2018)

Assay: Fecal excretion study in rats after oral NS, SF or CNS (LC–MS/MS)
Format: in vivo
Conditions: rat feces
Description: The animal room was set at constant temperature of 20 ± 2 °C with humidity of 50 ± 20% and 12/12 h light/dark cycle.
Eighteen male rats were fasted for 12 h before starting the experiment. The rats were divided into three groups at random (n = 6) and received NS (60 mg/kg), SF (50 mg/kg), and NS (60 mg/kg) + SF (50 mg/kg), respectively, by oral gavage. The rats were placed in separate metabolic cages. The urine samples were collected at 0–2, 2–4, 4–6, 6–8, 8–12, 12–24, 24–36, 36–48, 48–72, 72–96, and 96–120 h. The feces samples were collected at 0–4, 4–8, 8–12, 12–24, 24–36, 36–48, 48–72, 72–96, and 96–120 h. The urine volume was recorded and the dry feces were measured for each collection period. Samples were stored at −80 °C until analysis.
Feces samples were homogenized in ultrapure water (1 g/15 mL), soaked for 30 min, ultrasonically extracted for 30 min and centrifuged at 9000 rpm for 8 min. An aliquot of 200 μL feces water extraction solution was mixed with 10 μL of IS and then extracted three times with water-saturated n-BuOH (150 μL). The upper organic phase was combined and evaporated to dryness using a ZLS-2 vacuum centrifugal concentrator. The residue was treated as the urine sample and a 1-μL aliquot was injected for LC–MS analysis.
Ultra fast liquid chromatography (UFLC) analysis was performed using a Shimadzu UFLC system (DGU-20A3R Degasser; LC-20AD pump; SIL-20AXR Autosampler; CTO-20AC Column Oven) (Nakagyo-Ku, Koyoto, Japan). […] Because of the different endogenous substances in the urine and feces samples, different elution gradients were used to alleviate the matrix effects for the analytes.
The mass spectrometric detection was performed on an ABSciex 4500 Qtrap mass spectrometer (ABSciex, Foster City, CA, USA) equipped with a negative electrospray ionization (ESI) interface using multiple reaction monitoring (MRM). The MS parameters were optimized under the selected ion monitoring conditions as follows: curtain gas, 35 psi; ionspray voltage, 4500 V; turbo gas temperature, 450 °C; GS1, 45 psi; GS2, 45 psi. All data were acquired and analyzed by Analyst software (Versions 1.6.2) from ABSciex.
The accumulative excretion percentage was calculated for each analyte as follows. Excretion at time (t) = [concentration of the analyte (ng/mL) at t] × total urine (or feces) volume (mL) at t. The cumulative excretion up to time t (mg) was expressed as a percent (%) cumulative excretion by dividing by the total amount of the analyte ingested (mg): % Cumulative Excretion = 100 × (Σt excretiont) total ingested.

concentration at 4 h (male, Sprague Dawley, oral CNS 110 mg/kg, 4 h): 555 ± 763 ng/mL
concentration at 8 h (male, Sprague Dawley, oral CNS 110 mg/kg, 8 h): 1080 ± 431 ng/mL
concentration at 12 h (male, Sprague Dawley, oral CNS 110 mg/kg, 12 h): 899 ± 96 ng/mL
concentration at 24 h (male, Sprague Dawley, oral CNS 110 mg/kg, 24 h): 802 ± 25 ng/mL
concentration at 36 h (male, Sprague Dawley, oral CNS 110 mg/kg, 36 h): 548 ± 36 ng/mL
concentration at 48 h (male, Sprague Dawley, oral CNS 110 mg/kg, 48 h): 552 ± 30 ng/mL
concentration at 72 h (male, Sprague Dawley, oral CNS 110 mg/kg, 72 h): 455 ± 377 ng/mL
concentration at 96 h (male, Sprague Dawley, oral CNS 110 mg/kg, 96 h): 21 ± 20 ng/mL
concentration at 4 h (male, Sprague Dawley, oral NS 60 mg/kg, 4 h): 1080 ± 156 ng/mL
concentration at 8 h (male, Sprague Dawley, oral NS 60 mg/kg, 8 h): 767 ± 29 ng/mL
concentration at 12 h (male, Sprague Dawley, oral NS 60 mg/kg, 12 h): 2060 ± 137 ng/mL
concentration at 24 h (male, Sprague Dawley, oral NS 60 mg/kg, 24 h): 2180 ± 90 ng/mL
concentration at 36 h (male, Sprague Dawley, oral NS 60 mg/kg, 36 h): 920 ± 48 ng/mL
concentration at 48 h (male, Sprague Dawley, oral NS 60 mg/kg, 48 h): 1020 ± 52 ng/mL
concentration at 72 h (male, Sprague Dawley, oral NS 60 mg/kg, 72 h): 120 ± 9 ng/mL
concentration at 96 h (male, Sprague Dawley, oral NS 60 mg/kg, 96 h): 19 ± 4 ng/mL
concentration at 120 h (male, Sprague Dawley, oral NS 60 mg/kg, 120 h): 17 ± 3 ng/mL
Accumulative excretion amount (oral CNS 110 mg/kg, 4 h): 7.072 ± 10.199 µg
Accumulative excretion percentage (oral CNS 110 mg/kg, 4 h): 0.192±0.275%
Excretion amount (oral CNS 110 mg/kg, 4 h): 7.072 ± 10.199 µg
Accumulative excretion amount (oral CNS 110 mg/kg, 8 h): 22.570 ± 15.790 µg
Accumulative excretion percentage (oral CNS 110 mg/kg, 8 h): 0.607±0.426%
Excretion amount (oral CNS 110 mg/kg, 8 h): 15.499 ± 6.228 µg
Accumulative excretion amount (oral CNS 110 mg/kg, 12 h): 36.062 ± 14.935 µg
Accumulative excretion percentage (oral CNS 110 mg/kg, 12 h): 0.968±0.409%
Excretion amount (oral CNS 110 mg/kg, 12 h): 13.492 ± 4.335 µg
Accumulative excretion amount (oral CNS 110 mg/kg, 24 h): 48.081 ± 16.475 µg
Accumulative excretion percentage (oral CNS 110 mg/kg, 24 h): 1.282±0.443%
Excretion amount (oral CNS 110 mg/kg, 24 h): 12.018 ± 3.497 µg
Accumulative excretion amount (oral CNS 110 mg/kg, 36 h): 56.222 ± 17.772 µg
Accumulative excretion percentage (oral CNS 110 mg/kg, 36 h): 1.501±0.476%
Excretion amount (oral CNS 110 mg/kg, 36 h): 8.141 ± 2.259 µg
Accumulative excretion amount (oral CNS 110 mg/kg, 48 h): 64.538 ± 19.434 µg
Accumulative excretion percentage (oral CNS 110 mg/kg, 48 h): 1.723±0.522%
Excretion amount (oral CNS 110 mg/kg, 48 h): 8.316 ± 2.614 µg
Accumulative excretion amount (oral CNS 110 mg/kg, 72 h): 71.863 ± 19.005 µg
Accumulative excretion percentage (oral CNS 110 mg/kg, 72 h): 1.923±0.515%
Excretion amount (oral CNS 110 mg/kg, 72 h): 7.325 ± 6.432 µg
Accumulative excretion amount (oral CNS 110 mg/kg, 96 h): 72.213 ± 19.048 µg
Accumulative excretion percentage (oral CNS 110 mg/kg, 96 h): 1.931±0.512%
Excretion amount (oral CNS 110 mg/kg, 96 h): 0.350 ± 0.350 µg
Accumulative excretion amount (oral CNS 110 mg/kg, 120 h): 72.213 ± 19.048 µg
Accumulative excretion percentage (oral CNS 110 mg/kg, 120 h): 1.931±0.513%
Accumulative excretion amount (oral NS 60 mg/kg, 4 h): 15.357 ± 4.697 µg
Accumulative excretion percentage (oral NS 60 mg/kg, 4 h): 0.361±0.113%
Excretion amount (oral NS 60 mg/kg, 4 h): 15.357 ± 4.697 µg
Accumulative excretion amount (oral NS 60 mg/kg, 8 h): 26.423 ± 8.057 µg
Accumulative excretion percentage (oral NS 60 mg/kg, 8 h): 0.624±0.192%
Excretion amount (oral NS 60 mg/kg, 8 h): 11.066 ± 3.551 µg
Accumulative excretion amount (oral NS 60 mg/kg, 12 h): 56.148 ± 17.467 µg
Accumulative excretion percentage (oral NS 60 mg/kg, 12 h): 1.312±0.411%
Excretion amount (oral NS 60 mg/kg, 12 h): 29.724 ± 9.595 µg
Accumulative excretion amount (oral NS 60 mg/kg, 24 h): 87.371 ± 26.505 µg
Accumulative excretion percentage (oral NS 60 mg/kg, 24 h): 2.043±0.622%
Excretion amount (oral NS 60 mg/kg, 24 h): 31.223 ± 9.132 µg
Accumulative excretion amount (oral NS 60 mg/kg, 36 h): 100.721 ± 31.049 µg
Accumulative excretion percentage (oral NS 60 mg/kg, 36 h): 2.354±0.725%
Excretion amount (oral NS 60 mg/kg, 36 h): 13.350 ± 4.715 µg
Accumulative excretion amount (oral NS 60 mg/kg, 48 h): 115.527 ± 36.105 µg
Excretion amount (oral NS 60 mg/kg, 48 h): 14.806 ± 5.076 µg
Accumulative excretion amount (oral NS 60 mg/kg, 72 h): 117.237 ± 36.600 µg
Accumulative excretion percentage (oral NS 60 mg/kg, 72 h): 2.731±0.854%
Excretion amount (oral NS 60 mg/kg, 72 h): 1.710 ± 0.525 µg
Accumulative excretion amount (oral NS 60 mg/kg, 96 h): 117.502 ± 36.686 µg
Accumulative excretion percentage (oral NS 60 mg/kg, 96 h): 2.741±0.854%
Excretion amount (oral NS 60 mg/kg, 96 h): 0.264 ± 0.103 µg
Accumulative excretion amount (oral NS 60 mg/kg, 120 h): 117.753 ± 36.774 µg
Accumulative excretion percentage (oral NS 60 mg/kg, 120 h): 2.745±0.858%
Excretion amount (oral NS 60 mg/kg, 120 h): 0.252 ± 0.100 µg
Structure (SMILES): CC(C)=CCC[C@](C)(O[C@@H]1O[C@H](CO[C@@H]2O[C@H](CO)[C@@H](O)[C@H](O)[C@H]2O)[C@@H](O)[C@H](O)[C@H]1O)[C@H]1CC[C@]2(C)[C@@H]1[C@H](O)C[C@@H]1[C@@]3(C)CC[C@H](O[C@@H]4O[C@H](CO)[C@@H](O)[C@H](O)[C@H]4O[C@@H]4O[C@H](CO)[C@@H](O)[C@H](O)[C@H]4O)C(C)(C)[C@@H]3CC[C@]12C [ginsenoside Rb1]
